Laboratory results published in ChEMBL document CHEMBL1201862, “PubChem BioAssay data set” (2004).
Activity calls are given as the source filed them.

Experiments:
[1] = molecular target: T1, Heat shock factor protein 1 (Mus musculus, UniProt P38532); assay: HSF1 potentiators in luciferase reporter cells, confirmation, cell-based, NIH3T3, luminescence, dose retest (AID 435004); assay type: functional;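 note: stress induced by proteasome inhibitor MG132 added 30 min after compound; luciferase reporter driven by HSF1 response element in NIH3T3 cells; actives raise luminescence as potentiators of the MG132 stress response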
T1 sequence (P38532 whole entry): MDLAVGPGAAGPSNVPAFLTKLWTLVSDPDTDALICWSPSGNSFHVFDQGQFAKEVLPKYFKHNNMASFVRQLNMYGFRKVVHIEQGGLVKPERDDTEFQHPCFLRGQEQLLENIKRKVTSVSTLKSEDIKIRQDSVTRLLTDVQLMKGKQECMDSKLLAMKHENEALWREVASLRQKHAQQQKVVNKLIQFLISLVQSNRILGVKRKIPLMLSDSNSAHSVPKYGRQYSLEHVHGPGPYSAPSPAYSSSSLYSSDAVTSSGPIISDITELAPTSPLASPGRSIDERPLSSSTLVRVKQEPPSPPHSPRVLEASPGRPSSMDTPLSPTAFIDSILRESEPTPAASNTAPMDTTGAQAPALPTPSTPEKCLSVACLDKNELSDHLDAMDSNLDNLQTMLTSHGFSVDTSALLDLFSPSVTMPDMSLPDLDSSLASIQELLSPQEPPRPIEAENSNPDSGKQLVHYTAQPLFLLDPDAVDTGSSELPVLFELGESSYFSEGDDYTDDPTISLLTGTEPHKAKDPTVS

[2] = molecular target: G2/mitotic-specific cyclin-B1 (Homo sapiens, UniProt P14635); assay: Counterscreen assay for inhibitors of Wee1 degradation: dose response cell-based assay to identify inhibitors of cyclin B degradation. [Related pubchem assays: 1410, 1321 ]; assay type: functional
Wee1-like protein kinase = Wee1-like protein kinase (Homo sapiens, UniProt P30291); assay: Dose Response Cell-based Assay for Inhibitors of Wee1 Degradation. [Related pubchem assays: 1410, 1321 ]; assay type: functional
[3] = inhibitors of intracellular T. cruzi replication, confirmation, NIH3T3 host cells, beta-gal luminescence (AID 2044); assay type: functional, cell-based;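 note: intracellular parasites grown in NIH/3T3 mouse fibroblasts as host cells; luminescent beta-galactosidase reporter signal from transgenic T. cruzi replicating inside host cells; inhibitors lower the luminescence signal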
[4] = microbe, parasite or virus in culture; assay type: functional; conditions: Mycobacterium tuberculosis
[5] = cytotoxicity in HPDE-C7 cells, cell-based, fluorescence, HTS (AID 430); assay type: functional; conditions: Homo sapiens
[6] = molecular target: Sphingosine 1-phosphate receptor 2 (Homo sapiens, UniProt O95136); assay: Dose Response Cell Based Assay for Antagonists of the S1P2 Receptor. [Related pubchem assays: 856, 736 ]; assay type: functional
[7] = cytotoxicity in KRAS-transformed pancreatic duct cells, primary screen, cell-based, fluorescence, HTS (AID 431); assay type: functional; conditions: Homo sapiens;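 note: cell line used: HPDE-C7K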
[8] = molecular target: G-protein coupled receptor 35 (Homo sapiens, UniProt Q9HC97); assay: GPR35 antagonists blocking zaprinast-driven arrestin recruitment, primary screen, imaging, U2OS, beta-arrestin-GFP, zaprinast agonist (AID 2058); assay type: functional;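 note: antagonist potency meaning inhibition of agonist-induced arrestin redistribution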
[9] = cytotoxicity toward NIH3T3 fibroblasts, dose response, counter-screen, cell-based, ATP luminescence, mouse fibroblasts (AID 2010); assay type: functional;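 note: cells exposed to compound for about 90 hours before reading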
[10] = CEM21 lymphoblast cell cytotoxicity, dose response, cytotoxicity control for viral fusion inhibitor project, CellTiter-Glo luminescence, cherry-picked (AID 652042); assay type: functional, cell-based;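 note: potency for signal decrease meaning cytotoxicity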
[11] = HepG2 cell cytotoxicity, dose response, cytotoxicity control for Shn3 inhibitor project, CellTiter-Glo, cherry-picked (AID 624134); assay type: functional, cell-based
[12] = inhibitors of HIV Env-driven cell fusion, dose response, cherry-pick (AID 652057); assay type: functional, cell-based
[13] = control 3'UTR Renilla luciferase suppression, dose response, counter-screen for Shn3 inhibitor project, cell-based, Clone20-Shn3RL, cherry-picked (AID 624133); assay type: functional
Galanin receptor type 3 = molecular target: T2, Galanin receptor type 3 (Homo sapiens, UniProt O60755); assay: Fluorescence-based cell-based primary high throughput dose response assay to identify antagonists of the Galanin Receptor 3 (GalR3).; assay type: functional
T2 sequence (O60755 whole entry): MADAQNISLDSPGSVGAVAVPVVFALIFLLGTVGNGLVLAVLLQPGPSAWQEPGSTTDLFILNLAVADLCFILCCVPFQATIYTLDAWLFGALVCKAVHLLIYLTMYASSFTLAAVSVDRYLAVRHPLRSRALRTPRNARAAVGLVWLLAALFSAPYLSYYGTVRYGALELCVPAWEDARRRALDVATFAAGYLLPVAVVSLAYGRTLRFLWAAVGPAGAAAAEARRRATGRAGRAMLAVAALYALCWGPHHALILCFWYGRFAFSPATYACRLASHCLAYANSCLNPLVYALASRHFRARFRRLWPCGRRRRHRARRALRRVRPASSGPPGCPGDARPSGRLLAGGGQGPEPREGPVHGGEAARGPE

cells = assay type: functional, cell-based; conditions: HEK-CNG
[14] = inhibitors of clade B AD8 Env fusion, dose response, cell-based, cherry-pick (AID 652062); assay type: functional;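 note: luciferase signal from cell-cell fusion driven by HIV-1 clade B AD8 Env; potency is for inhibitors of fusion seen as a drop in luminescence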
[15] = molecular target: T3, COUP transcription factor 2 (Homo sapiens, UniProt P24468); assay: Luminescence-based cell-based high throughput dose response assay to identify inhibitors of COUP-TFII (NR2F2).; assay type: functional;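 note: HEK293 cells transiently cotransfected with COUP-TFII expression vector and reporter; luciferase reporter luminescence driven by COUP-TFII from the pX2-168 reporter plasmid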
T3 sequence (P24468 whole entry): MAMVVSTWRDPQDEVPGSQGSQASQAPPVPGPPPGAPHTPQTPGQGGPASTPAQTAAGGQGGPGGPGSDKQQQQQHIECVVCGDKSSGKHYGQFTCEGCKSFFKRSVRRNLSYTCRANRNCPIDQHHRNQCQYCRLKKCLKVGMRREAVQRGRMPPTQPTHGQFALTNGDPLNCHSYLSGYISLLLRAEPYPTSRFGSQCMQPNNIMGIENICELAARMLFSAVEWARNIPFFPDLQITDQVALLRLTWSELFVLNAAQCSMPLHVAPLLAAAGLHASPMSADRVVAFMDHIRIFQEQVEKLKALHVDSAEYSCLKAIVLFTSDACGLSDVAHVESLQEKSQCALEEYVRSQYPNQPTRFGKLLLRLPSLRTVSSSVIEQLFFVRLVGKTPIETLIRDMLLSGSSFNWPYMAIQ

[16] = molecular target: Serine/threonine-protein phosphatase PP1-alpha catalytic subunit (Homo sapiens, UniProt P62136); assay: PP1 phosphatase inhibitors, dose response, biochemical, fluorescence (AID 2403);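 note: phosphatase turnover of OMFP into fluorescent 3-O-methylfluorescein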
[17] = ZM109 Env clade C HIV-1 fusion inhibitors, dose response, HeLa effector, CEM target cells, luciferase, cherry-pick (AID 652058); assay type: functional, cell-based
[18] = molecular target: Serine/threonine-protein phosphatase (Homo sapiens, UniProt Q9BPW0); assay: Counterscreen for inhibitors of PP1: fluorescence-based biochemical high throughput dose response assay to identify inhibitors of Protein Phosphatase 5 (PP5). [Related pubchem assays: 2034 (Summary (PP5 inhibitors)), 1987 (PP5 inhibitors in singlate), 2235 (PP1 inhibitors in singlate)]
Streptococcus = assay: Group A Streptococcus viability loss, dose response, counter-screen for streptokinase expression inhibitor project, luminescence, BacTiterGlo (AID 1915); assay type: functional, organism-based;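 note: potency for reduction of bacterial viability or growth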
[19] = tested on: Streptococcus sp. 'group A'; assay: growth inhibition of control SK(-) GAS strain, dose response, counter-screen for streptokinase expression inhibitor project, luminescence, kanamycin, BacTiterGlo, confirmation (AID 1900); assay type: functional, organism-based
[20] = off-target signal loss in HeLa-CEM21 co-culture – HeLa F-luc CTL cells, cherry-picked, counter-screen for HIV-1 Env fusion inhibitor project, dose response (AID 652040); assay type: functional, cell-based;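 note: potency for signal decrease marking cytotoxic or nonspecific inhibition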
Vero = assay: cells; assay type: functional; conditions: Chlorocebus sabaeus
[21] = Shn3 3'UTR reporter inhibitors, dose response, cell-based, Clone20 osteoblasts, firefly luciferase, cherry-picked (AID 624132); assay type: functional;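 note: firefly luciferase luminescence from reporter carrying the Shn3 3'UTR in osteoblasts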
Bcl-2-like protein 10 = molecular target: T4, Bcl-2-like protein 10 (Homo sapiens, UniProt Q9HD36); assay: displacers of TR3 peptide from Bcl-B, primary screen, selectivity assay for Bfl-1 inhibitor project, biochemical, fluorescence polarization, FITC-TR3 peptide (AID 748);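 note: fluorescence polarization from a fluorescein-labelled TR3 peptide binding purified Bcl-B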
T4 sequence (Q9HD36 whole entry): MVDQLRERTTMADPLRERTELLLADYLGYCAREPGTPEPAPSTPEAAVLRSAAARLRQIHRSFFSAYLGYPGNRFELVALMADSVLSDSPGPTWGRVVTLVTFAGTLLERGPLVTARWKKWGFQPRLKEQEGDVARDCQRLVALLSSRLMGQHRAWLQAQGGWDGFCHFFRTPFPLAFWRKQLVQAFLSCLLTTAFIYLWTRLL

[22] = cytotoxicity in HEK-293T cells, dose response, cytotoxicity control for BCR NF-kB inhibitor project, luminescence, B-cell screen hits (AID 489021); assay type: functional, cell-based;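 note: HEK-293T cells carrying an NF-kB luciferase reporter; cells exposed to compound for about 14 hours before viability readout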
[23] = molecular target: Eukaryotic translation initiation factor 4H (Homo sapiens, UniProt Q15056); assay: human eIF4H binding inhibitors, primary screen, translation initiation inhibitor project, biochemical, uHTS, fluorescence polarization (AID 2012)
[24] = molecular target: Polyadenylate-binding protein 1 (Homo sapiens, UniProt P11940); assay: PABP poly(A) RNA binding inhibitors, primary screen, biochemical, fluorescence polarization, uHTS (AID 2014)
Polyadenylate-binding protein 1, sequence (P11940 whole entry): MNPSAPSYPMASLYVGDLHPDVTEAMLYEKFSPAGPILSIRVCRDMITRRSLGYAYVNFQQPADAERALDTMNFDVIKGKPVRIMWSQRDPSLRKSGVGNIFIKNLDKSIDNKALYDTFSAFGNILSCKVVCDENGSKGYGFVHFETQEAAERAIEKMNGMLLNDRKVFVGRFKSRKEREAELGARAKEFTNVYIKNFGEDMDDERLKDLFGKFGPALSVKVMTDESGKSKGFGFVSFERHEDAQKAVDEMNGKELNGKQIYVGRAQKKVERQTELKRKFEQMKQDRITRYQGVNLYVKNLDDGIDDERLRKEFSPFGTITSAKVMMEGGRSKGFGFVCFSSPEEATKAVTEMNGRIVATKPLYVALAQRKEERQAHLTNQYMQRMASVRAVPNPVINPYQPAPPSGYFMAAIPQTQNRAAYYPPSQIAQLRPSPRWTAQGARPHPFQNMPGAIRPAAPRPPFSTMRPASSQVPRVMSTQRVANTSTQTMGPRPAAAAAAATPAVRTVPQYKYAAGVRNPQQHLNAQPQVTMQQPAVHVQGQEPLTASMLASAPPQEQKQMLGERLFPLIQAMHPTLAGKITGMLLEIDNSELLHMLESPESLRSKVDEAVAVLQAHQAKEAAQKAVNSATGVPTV

Sphingosine 1-phosphate receptor 2, sequence (O95136 whole entry): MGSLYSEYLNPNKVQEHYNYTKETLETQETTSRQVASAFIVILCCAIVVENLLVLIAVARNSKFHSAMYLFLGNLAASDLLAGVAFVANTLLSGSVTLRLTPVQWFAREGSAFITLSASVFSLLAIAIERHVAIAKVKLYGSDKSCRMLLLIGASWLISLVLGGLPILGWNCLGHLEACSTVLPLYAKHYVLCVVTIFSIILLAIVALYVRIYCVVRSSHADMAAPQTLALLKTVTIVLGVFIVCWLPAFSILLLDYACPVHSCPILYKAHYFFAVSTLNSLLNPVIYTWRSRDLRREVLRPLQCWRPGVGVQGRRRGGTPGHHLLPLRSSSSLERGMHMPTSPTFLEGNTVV
G-protein coupled receptor 35, sequence (Q9HC97 whole entry): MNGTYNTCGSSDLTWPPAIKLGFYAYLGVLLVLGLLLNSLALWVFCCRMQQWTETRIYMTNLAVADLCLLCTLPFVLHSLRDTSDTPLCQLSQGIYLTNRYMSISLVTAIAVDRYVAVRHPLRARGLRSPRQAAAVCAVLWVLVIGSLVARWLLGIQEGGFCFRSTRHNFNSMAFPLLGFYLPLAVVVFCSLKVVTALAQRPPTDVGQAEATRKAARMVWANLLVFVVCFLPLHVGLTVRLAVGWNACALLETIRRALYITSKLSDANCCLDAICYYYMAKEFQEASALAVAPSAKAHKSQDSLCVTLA
Serine/threonine-protein phosphatase, sequence (Q9BPW0 whole entry): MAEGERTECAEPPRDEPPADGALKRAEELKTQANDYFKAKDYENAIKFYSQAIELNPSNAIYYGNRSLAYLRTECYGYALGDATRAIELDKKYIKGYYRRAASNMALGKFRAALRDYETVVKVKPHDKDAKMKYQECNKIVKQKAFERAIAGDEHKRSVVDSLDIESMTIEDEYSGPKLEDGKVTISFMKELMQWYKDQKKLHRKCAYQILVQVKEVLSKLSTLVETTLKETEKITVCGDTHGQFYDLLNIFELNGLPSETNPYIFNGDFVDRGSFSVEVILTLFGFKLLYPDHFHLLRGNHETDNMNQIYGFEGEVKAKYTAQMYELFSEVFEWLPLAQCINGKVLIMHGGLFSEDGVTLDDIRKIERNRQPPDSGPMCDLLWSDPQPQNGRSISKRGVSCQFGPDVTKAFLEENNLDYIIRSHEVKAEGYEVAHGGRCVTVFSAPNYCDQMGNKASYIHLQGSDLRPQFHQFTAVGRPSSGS
Serine/threonine-protein phosphatase PP1-alpha catalytic subunit, sequence (P62136 whole entry, the tested form may be a part): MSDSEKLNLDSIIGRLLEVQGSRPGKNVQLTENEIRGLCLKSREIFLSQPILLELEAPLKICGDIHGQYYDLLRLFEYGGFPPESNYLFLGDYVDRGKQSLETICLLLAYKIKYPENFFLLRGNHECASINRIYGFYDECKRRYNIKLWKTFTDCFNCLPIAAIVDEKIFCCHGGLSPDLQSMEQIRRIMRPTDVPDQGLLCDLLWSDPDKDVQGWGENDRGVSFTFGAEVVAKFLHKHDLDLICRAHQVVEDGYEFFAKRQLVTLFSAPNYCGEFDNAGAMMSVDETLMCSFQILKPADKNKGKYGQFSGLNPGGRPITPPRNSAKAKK
Wee1-like protein kinase, sequence (P30291 whole entry): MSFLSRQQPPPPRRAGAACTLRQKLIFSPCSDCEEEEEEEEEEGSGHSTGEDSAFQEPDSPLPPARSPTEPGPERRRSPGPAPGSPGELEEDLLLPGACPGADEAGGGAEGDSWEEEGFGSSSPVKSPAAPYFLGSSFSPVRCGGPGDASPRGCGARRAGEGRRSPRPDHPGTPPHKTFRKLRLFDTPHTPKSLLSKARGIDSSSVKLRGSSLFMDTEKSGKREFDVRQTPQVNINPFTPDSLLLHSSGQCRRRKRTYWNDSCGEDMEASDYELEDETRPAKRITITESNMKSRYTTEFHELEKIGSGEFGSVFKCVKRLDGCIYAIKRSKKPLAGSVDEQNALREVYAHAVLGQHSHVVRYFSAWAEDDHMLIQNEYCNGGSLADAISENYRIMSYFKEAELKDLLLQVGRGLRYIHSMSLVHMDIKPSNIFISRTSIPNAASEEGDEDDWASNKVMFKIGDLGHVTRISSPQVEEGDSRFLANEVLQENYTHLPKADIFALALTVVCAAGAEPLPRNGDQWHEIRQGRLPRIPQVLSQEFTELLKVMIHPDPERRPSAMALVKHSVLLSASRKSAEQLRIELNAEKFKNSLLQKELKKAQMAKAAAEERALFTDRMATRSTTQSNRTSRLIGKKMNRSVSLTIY
G2/mitotic-specific cyclin-B1, sequence (P14635 whole entry): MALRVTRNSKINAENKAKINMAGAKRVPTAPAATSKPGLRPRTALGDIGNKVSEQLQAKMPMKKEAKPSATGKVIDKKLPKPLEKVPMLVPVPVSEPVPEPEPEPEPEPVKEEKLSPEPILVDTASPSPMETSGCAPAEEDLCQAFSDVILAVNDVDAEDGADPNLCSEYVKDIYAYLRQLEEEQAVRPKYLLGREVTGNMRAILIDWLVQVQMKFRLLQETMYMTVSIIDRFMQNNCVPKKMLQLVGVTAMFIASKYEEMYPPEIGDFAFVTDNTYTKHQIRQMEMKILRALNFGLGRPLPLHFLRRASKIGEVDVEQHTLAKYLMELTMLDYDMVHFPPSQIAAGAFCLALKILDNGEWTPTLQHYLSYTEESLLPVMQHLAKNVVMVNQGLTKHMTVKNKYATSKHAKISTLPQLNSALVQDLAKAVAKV

Structure (SMILES): CCOC(=O)N1CCN(C(=O)c2cc(-c3ccc(OCC)cc3)nc3ccccc23)CC1
- EC50 [1]: 14.5 µM (active)
- EC50 [2]: > 49.7 µM (not active)
- EC50 (Wee1-like protein kinase): > 49.7 µM (not active)

Structure (SMILES): CCN(CC)c1ccc2c(Cl)c(Br)c(=O)oc2c1
- EC50 [3]: 2.96 µM (active)
- CC50 [4]: > 40 µM (active)
- EC50 [5]: 3.1 µM (active)
- IC50 [6]: 2.53 µM (active)
- EC50 [7]: 2.08 µM (active)
- IC50 [8]: < 0.5 µM (active)
- EC50 [1]: 2.75 µM (inconclusive)
- EC50 [9]: 4.88 µM (active)

Structure (SMILES): CCOC(=O)c1cnc(-n2nc(C)cc2C)nc1NC1CCCCC1
- EC50 [3]: 1.2 µM (active)
- AC50 [10]: 18.1 µM (active)
- AC50 [11]: 4.48 µM (active)
- AC50 [12]: 35.5 µM (active)
- AC50 [13]: 3.29 µM (active)
- IC50 (Galanin receptor type 3): > 29.9 µM (inactive)
- EC50 (cells): 14.5 µM (inactive)
- AC50 [14]: 33.4 µM (active)
- IC50 [6]: 4.39 µM (active)
- IC50 [15]: 7.02 µM (active)
- IC50 [16]: 6.65 µM (active)
- AC50 [17]: 21.3 µM (active)
- IC50 [18]: > 67 µM (not active)
- EC50 (Streptococcus): 2.5 µM (active)
- EC50 [9]: 12.8 µM (active)
- EC50 [19]: 1.82 µM (active)
- AC50 [20]: 27.1 µM (active)
- CC50 (Vero): 11.5 µM (active)
- AC50 [21]: 3.01 µM (active)

Structure (SMILES): O=C(NCCN1CCCCCC1)C1CCC(CNS(=O)(=O)c2cccc3cccnc23)CC1 (centres undefined)
- IC50 (Bcl-2-like protein 10): > 100 µM (inactive)

Structure (SMILES): OCCC/N=C/c1c(-c2ccccc2)nn(-c2nc3ccccc3s2)c1O
- IC50 [22]: > 80 µM (inactive)

Structure (SMILES): c1cc[n+](CCC[n+]2ccccc2)cc1
- IC50 [23]: 96.5 µM (active)
- IC50 [24]: 3.68 µM (active)
